Measurements: US10519504B2, “Methods for treatment of oncological disorders using epimetabolic shifters, multidimensional intracellular molecules, or environmental influencers” (Berg LLC, priority 2009, dated 2019)

Experiments:
Hif1 alpha = assay: Western blot, Hif1 alpha levels; format: cell-based, human
Method: The Actin blots were stripped by incubating for 30 minutes with methanol, followed by two 10 minute washes with TBS-T, then 30 minutes of incubation with Stripping buffer at 50 deg C., and followed by two washes with 100 ml or more of TBS-T for 30′ each. The blots were scanned in laser scanner to check for complete stripping. The blots were activated with methanol for 5 seconds, washed with water for 5 minutes, and TBST for 15 minutes. The blots were blocked for 1 hour with 5% blocking reagent in TBS-T at room temperature and then washed 3 times with TBS-T (1X−15′; 2X5′ each) and probed with the primary antibody for Hif 1 alpha, Caspase 3 or PDHB in 5% BSA (at 1:200 by incubation overnight at 4 deg C. with gentle shaking. The primary antibody for Hif 1 alpha (Abcam ab2185; antirabbit) was at 1:500 dilution in 5% BSA. The primary antibody for Caspase 3 (Santacruz sc7272; antirabbit) was at 1:200 dilution in 5% BSA. The primary antibody for Pyruvate Dehydrogenase beta (PDHB) (Novus Biologicals H00005162-M03; antimouse) was at 1:500 dilution in 5% BSA. After incubation with primary antibodies, the membranes were washed 3 times with TBS-T (1X−15′; 2X5′ each) and probed with the secondary antibody (PDHB antimouse; Hif 1a and Caspase 3 antirabbit; 1:10,000 dilution) for 1 h at room temperature. […]

HASMC cells = assay: Diabetes PCR array; format: cell-based, human
Method: The HK-2 and HASMC cells are normally maintained in culture at 5.5 mM glucose, which is a concentration that corresponds to a range considered normal in human blood. However, in order to simulate a diabetic environment, both cell lines were subsequently maintained at 22 mM glucose, which corresponds to the range observed in human blood associated with chronic hyperglycemia. The cells were subsequently allowed to propagate over 3 passages so that the intracellular regulation processes were functionally adapted to mimic a diabetic state. The choice of cell line was based on the physiologic influence of diabetes on renal dysfunction and progression to end-stage renal disease (ESRD) in addition to the progressive pathophysiology of a compromised cardiovascular function.
The Diabetes PCR array (SABiosciences) offers a screen for 84 genes simultaneously.
A stringent analysis of the Real time PCR data of the HASMC cell samples on the Diabetes Arrays (Cat #PAHS-023E, SABiosciences Frederick Md.) was made to exclude all results where gene regulation was not at least a two-fold regulation over HASMC normal untreated cells with a p value of less than 0.05.

[1] = system: HAEC, MCF-7, HepG2 and PC-3 cell lines; assay: OCR and ECAR, SeaHorse XF analyzer (data not shown); format: cell-based, human; conditions: absence and/or presence of stressors (hyperglycemia, hypoxia, lactic acid)
Method: (§1) (SeaHorse Biosciences Inc, North Billerica, Mass.).
A similar comparison of OCR and ECAR values (data not shown) were determined in numerous other normal and cancer cells lines, including: HAEC (normal human aortic endothelial cells), MCF-7 (breast cancer), HepG2 (liver cancer) and highly metastatic PC-3 (prostate cancer) cell lines. […] Thus, the overall effect of CoQ10 in the treatment of cancer, including cell death, is an downstream effect of its collective influence on proteomic, genomic, metabolomic outcomes in concert with shifting of the cellular bioenergetics from glycolysis to mitochondrial OXPHOS.

[2] = system: Pancreatic Cancer Cells (PaCa2); assay: Real-time PCR Diabetes Array; format: cell-based; conditions: 100 uM Q10
Method: Experiments were carried out essentially as described above.

HDFa cells = assay: OCR and ECAR, SeaHorse XF analyzer; format: cell-based, human
Excerpt: as §1
In this experiment, the OCR and extracellular acidification rate (ECAR) in normal cells lines were obtained in the presence and absence of CoQ10 to determine baseline values. It was observed that in its native nutrient environment, the basal OCR rates in normal cells lines are different, and are usually a function of the physiological roles of the cells in the body. […]
Table 97 below describes the ECAR values (mpH/min) in HDFa cells in the presence or absence of CoQ10 under normoxic and hypoxic conditions at 5.5 mM and 22 mM glucose.

SkBr-3 cells = assay: Real-time PCR Apoptosis Array; format: cell-based, human
Method: RNA was quantified by measuring Optical Density at 260 nm.
Changes in mRNA levels were evaluated using real-time PCR quantification to assess mRNA levels in pre-selected subsets containing […] pathway specific targets.
The assay method of RT-PCR was utilized to provide a measure of mRNA level changes to a total of 84 apoptotic pathway related proteins.

For `COC1=C(OC)C(=O)C(C/C=C(\C)CC/C=C(\C)CC/C=C(\C)CC/C=C(\C)CC/C=C(\C)CC/C=C(\C)CC/C=C(\C)CC/C=C(\C)CC/C=C(\C)CCC=C(C)C)=C(C)C1=O` [Q10, Coenzyme Q10], the “Hif1 alpha protein levels” value (Hif1 alpha; mitochondrial preparations of cancer cells) was “decreased Hif1 alpha protein levels”, the Hif1a lower band (Hif1 alpha; whole cell lysates of normal cells) was “showed a decrease as well” and the “expression of CCL5” value (HASMC cells; HASMC cells) was “significant decrease in the expression of CCL5”. The “expression of AGT, CEACAM1, INSR, SELL, IL-6, TNF, CCL5” value (HASMC cells; hyperglycemic HASMC cells) was “altered expression of genes”, the “OCR and ECAR values” [1] was “shift in OCR and ECAR values representative of values observed in a normal cells under normal physiological conditions” and the “diabetes array genes (ABCC8, ACLY, ADRB3 ... IL4R, IL6 as listed)” value [2] was “modulated by Q10 treatment”. The ECAR (HDFa cells; 50 μM, Hypoxia (5.5 mM) glucose) was 5 mpH/min, the ECAR (HDFa cells; 50 μM, Hypoxia (22 mM) glucose) was 6 mpH/min and the ECAR (HDFa cells; 50 μM, Normoxia (5.5 mM) glucose) was 6 mpH/min. The ECAR (HDFa cells; 50 μM, Normoxia (22 mM) glucose) was 5 mpH/min, the ECAR (HDFa cells; 100 μM, Hypoxia (5.5 mM) glucose) was 5 mpH/min and the ECAR (HDFa cells; 100 μM, Hypoxia (22 mM) glucose) was 8 mpH/min. For the same compound, the ECAR (HDFa cells; 100 μM, Normoxia (5.5 mM) glucose) was 6 mpH/min, the ECAR (HDFa cells; 100 μM, Normoxia (22 mM) glucose) was 5 mpH/min and the ECAR (HDFa cells; HDFa, high glucose hypoxic conditions) was “lowering of elevated ECAR to a value that was observed in untreated normoxic conditions”. For the same compound, the ECAR values (HDFa cells; HDFa, normoxic and hypoxic, 5.5 mM and 22 mM glucose) was “minimal influence on ECAR values”, the “mRNAs Bcl2, Bcl2L1, Bcl2L11, Birc6, Bax, Xiap, Hprt1, Apaf1, Abl1, Braf” value (SkBr-3 cells; SkBr3, Q10 24 hr) was “affected” and the “Bcl-xl mRNA level” value (SkBr-3 cells; apoptosis array) was “significant up-regulation”.
